Columns and labels:
Format in all cases: binding
[1] = molecular target: TEAD1 YAP50-100 (Homo sapiens, UniProt P28347); experiment: TEAD1-YAP HTRF (TR-FRET) protein-protein interaction assay; conditions: TEAD1, YAP peptide 50-100, HTRF; for EC50: read-out: TEAD1 YAP50-100 HTRF combined: EC50
Method: (§1) Purified His-tagged TEAD protein (YAP Binding Domain, amino acids 217-447) is pre-incubated with Europium labelled anti-His antibody tracer (Perkin Elmer Cat #AD0110). Small molecule Inhibitors are then incubated with the TEAD-Eu protein complex for 30 minutes to allow for binding to TEAD protein. Biotinylated YAP peptide for TEAD-YAP assays (AA's 50-100) or biotinylated TAZ peptide for TEAD-TAZ assays (AA's 13-57) that has been pre-incubated with streptavidin-xl665 acceptor (CIS-Bio Cat #610SAXAC) or is added to the compound-TEAD mix. The TEAD-YAP-inhibitor mixture is then incubated for 60 minutes at room temperature. All reactions are carried out in a polystyrene plate. After 60 minutes, the plate is read on a plate reader using TR-FRET mode with wavelengths of 665 nm/615 nm. If YAP or TAZ binds to TEAD as expected, a TR-FRET signal results from the proximity of YAP or TAZ and TEAD after binding. If an inhibitor such as peptide 17 (Selleckchem Cat #58164) interferes with YAP-TEAD or TAZ-TEAD binding, the disruption of the YAP or TAZ:TEAD interaction results in a decrease in TR-FRET signal. The potency of compounds as YAP:TEAD or TAZ:TEAD protein-protein interaction (PPi) inhibitors is determined by an IC50 or EC50 value generated using a non-linear four parameter curve fit.

[2] = molecular target: TEAD2 YAP50-100 (Homo sapiens, UniProt Q15562); experiment: TEAD2-YAP HTRF (TR-FRET) protein-protein interaction assay; conditions: TEAD2, YAP peptide 50-100, HTRF; for EC50: read-out: TEAD2 YAP50-100 HTRF combined: EC50
Sequence of TEAD2 YAP50-100 (Q15562 217-447): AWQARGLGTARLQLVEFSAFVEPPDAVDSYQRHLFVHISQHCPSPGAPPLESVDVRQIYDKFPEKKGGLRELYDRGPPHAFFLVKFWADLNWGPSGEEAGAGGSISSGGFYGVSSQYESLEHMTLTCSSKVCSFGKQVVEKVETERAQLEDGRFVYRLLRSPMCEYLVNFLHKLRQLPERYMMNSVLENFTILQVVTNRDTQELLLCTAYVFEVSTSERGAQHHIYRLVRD
Method: as §1

[3] = molecular target: TEAD3 YAP50-100 (Homo sapiens, UniProt Q99594); experiment: TEAD3-YAP HTRF (TR-FRET) protein-protein interaction assay; conditions: TEAD3, YAP peptide 50-100, HTRF; for EC50: read-out: TEAD3 YAP50-100 HTRF combined: EC50
Sequence of TEAD3 YAP50-100 (Q99594 173-435 limits assumed): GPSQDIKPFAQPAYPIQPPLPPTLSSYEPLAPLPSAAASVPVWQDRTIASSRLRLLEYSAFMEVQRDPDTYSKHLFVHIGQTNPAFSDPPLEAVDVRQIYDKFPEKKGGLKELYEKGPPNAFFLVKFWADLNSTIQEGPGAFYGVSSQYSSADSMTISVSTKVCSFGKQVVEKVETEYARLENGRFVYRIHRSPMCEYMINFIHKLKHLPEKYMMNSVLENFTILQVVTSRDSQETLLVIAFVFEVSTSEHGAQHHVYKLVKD
Method: as §1

[4] = molecular target: TEAD4 YAP50-100 (Homo sapiens, UniProt Q15561); experiment: TEAD4-YAP HTRF (TR-FRET) protein-protein interaction assay; conditions: TEAD4, YAP peptide 50-100, HTRF; for EC50: read-out: TEAD4 YAP50-100 HTRF combined: EC50
Sequence of TEAD4 YAP50-100 (Q15561 217-434 limits assumed): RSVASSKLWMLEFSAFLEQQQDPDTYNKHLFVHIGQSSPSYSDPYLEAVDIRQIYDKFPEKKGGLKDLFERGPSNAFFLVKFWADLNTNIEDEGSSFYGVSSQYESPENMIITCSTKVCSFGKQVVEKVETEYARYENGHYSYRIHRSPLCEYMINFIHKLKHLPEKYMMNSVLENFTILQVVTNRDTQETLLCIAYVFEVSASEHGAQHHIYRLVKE
Method: as §1

[5] = molecular target: TEAD1 TAZ (amino acids 13-57) (Homo sapiens, UniProt P28347); experiment: TEAD1-TAZ HTRF (TR-FRET) protein-protein interaction assay; conditions: for TEAD1 TAZ HTRF combined: Max % Inhibition: TEAD1, TAZ peptide; for EC50: TEAD1-TAZ HTRF, TR-FRET 665 nm/615 nm, read-out: TEAD1 TAZ HTRF combined: EC50
Sequence of TEAD1 TAZ (amino acids 13-57) (P28347 167-426 limits assumed): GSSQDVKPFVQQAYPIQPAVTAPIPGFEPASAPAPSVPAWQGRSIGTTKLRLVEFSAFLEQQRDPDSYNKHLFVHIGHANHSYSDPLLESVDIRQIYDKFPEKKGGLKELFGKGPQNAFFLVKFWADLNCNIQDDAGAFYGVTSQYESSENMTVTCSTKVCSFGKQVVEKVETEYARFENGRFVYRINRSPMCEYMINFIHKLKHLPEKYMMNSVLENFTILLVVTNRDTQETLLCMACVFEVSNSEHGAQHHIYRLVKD
Method: as §1

[6] = molecular target: TEAD2 TAZ (amino acids 13-57) (Homo sapiens, UniProt Q15562); experiment: TEAD2-TAZ HTRF (TR-FRET) protein-protein interaction assay; conditions: for TEAD2 TAZ HTRF combined: Max % Inhibition: TEAD2, TAZ peptide; for EC50: TEAD2-TAZ HTRF, TR-FRET 665 nm/615 nm, read-out: TEAD2 TAZ HTRF combined: EC50
Sequence of TEAD2 TAZ (amino acids 13-57) (Q15562 217-447): as the sequence (Q15562 217-447) above
Method: as §1

[7] = molecular target: TEAD3 TAZ (amino acids 13-57) (Homo sapiens, UniProt Q99594); experiment: TEAD3-TAZ HTRF (TR-FRET) protein-protein interaction assay; conditions: for TEAD3 TAZ HTRF combined: Max % Inhibition: TEAD3, TAZ peptide; for EC50: TEAD3-TAZ HTRF, TR-FRET 665 nm/615 nm, read-out: TEAD3 TAZ HTRF combined: EC50
Sequence of TEAD3 TAZ (amino acids 13-57) (Q99594 173-435 limits assumed): as the sequence (Q99594 173-435 limits assumed) above
Method: as §1

[8] = molecular target: TEAD4 TAZ (amino acids 13-57) (Homo sapiens, UniProt Q15561); experiment: TEAD4-TAZ HTRF (TR-FRET) protein-protein interaction assay; conditions: for TEAD4 TAZ HTRF combined: Max % Inhibition: TEAD4, TAZ peptide; for EC50: TEAD4-TAZ HTRF, TR-FRET 665 nm/615 nm, read-out: TEAD4 TAZ HTRF combined: EC50
Sequence of TEAD4 TAZ (amino acids 13-57) (Q15561 217-434 limits assumed): as the sequence (Q15561 217-434 limits assumed) above
Method: as §1

Sequence of TEAD1 YAP50-100 (P28347 167-426 limits assumed): as the sequence (P28347 167-426 limits assumed) above

## O=C(c1c(C2CNCCO2)nn2c(=O)cc(-c3ccc(C4CCCCC4)cc3)[nH]c12)N1CC(CF)C1 (single isomer, unassigned) [Enantiomer B, Example 63, 5-(4-Cyclohexylphenyl)-3-[3-(fluoromethyl)azetidine-1-carbonyl]-2-morpholin-2-yl-4H-pyrazolo[1,5-a]pyrimidin-7-one]
[1]
  TEAD1 YAP50-100 HTRF combined: Max % Inhibition: 62.0%
  EC50: 90 nM
[2]
  TEAD2 YAP50-100 HTRF combined: Max % Inhibition: 62.5%
  EC50: 40 nM
[3]
  TEAD3 YAP50-100 HTRF combined: Max % Inhibition: 59.5%
  EC50: 150 nM
[4]
  TEAD4 YAP50-100 HTRF combined: Max % Inhibition: 35.0%
  EC50: 1090 nM
[5]
  TEAD1 TAZ HTRF combined: Max % Inhibition: 52.0%
  EC50: 140 nM
[6]
  TEAD2 TAZ HTRF combined: Max % Inhibition: 65.0%
  EC50: 30 nM
[7]
  TEAD3 TAZ HTRF combined: Max % Inhibition: 52.0%
  EC50: 160 nM
[8]
  TEAD4 TAZ HTRF combined: Max % Inhibition: 28.0%
  EC50: 590 nM

## Cc1nccnc1-c1nn2c(=O)cc(-c3ccc(OC(c4ccccc4)C(F)(F)F)cc3)[nH]c2c1C(=O)N1C[C@H](CF)[C@@H]1C (single isomer, unassigned) [Final product obtained using Enantiomer A from Step 1, Example 56]
[1]
  TEAD1 YAP50-100 HTRF combined: Max % Inhibition: 74.0%
  EC50: 370 nM
[2]
  TEAD2 YAP50-100 HTRF combined: Max % Inhibition: 92.0%
  EC50: 60 nM
[3]
  TEAD3 YAP50-100 HTRF combined: Max % Inhibition: 81.5%
  EC50: 370 nM
[4]
  TEAD4 YAP50-100 HTRF combined: Max % Inhibition: 69.5%
  EC50: 2700 nM
[5]
  TEAD1 TAZ HTRF combined: Max % Inhibition: 63.0%
  EC50: 320 nM
[6]
  TEAD2 TAZ HTRF combined: Max % Inhibition: 89.0%
  EC50: 60 nM
[7]
  TEAD3 TAZ HTRF combined: Max % Inhibition: 74.5%
  EC50: 430 nM
[8]
  TEAD4 TAZ HTRF combined: Max % Inhibition: 67.0%
  EC50: 2250 nM

## CC(CO)c1nn2c(=O)cc(-c3ccc(C4CCCCC4)cc3)[nH]c2c1C(=O)N1CC[C@@H](C#N)C1 (single isomer, unassigned) [Final product obtained using Enantiomer A from Step 4, Example 54]
[1]
  TEAD1 YAP50-100 HTRF combined: Max % Inhibition: 59.0%
  EC50: 130 nM
[2]
  TEAD2 YAP50-100 HTRF combined: Max % Inhibition: 65.0%
  EC50: 40 nM
[3]
  TEAD3 YAP50-100 HTRF combined: Max % Inhibition: 71.5%
  EC50: 250 nM
[4]
  TEAD4 YAP50-100 HTRF combined: Max % Inhibition: 47.5%
  EC50: 550 nM
[5]
  TEAD1 TAZ HTRF combined: Max % Inhibition: 41.5%
  EC50: 240 nM
[6]
  TEAD2 TAZ HTRF combined: Max % Inhibition: 71.0%
  EC50: 40 nM
[7]
  TEAD3 TAZ HTRF combined: Max % Inhibition: 73.0%
  EC50: 260 nM
[8]
  TEAD4 TAZ HTRF combined: Max % Inhibition: 44.5%
  EC50: 480 nM

## Cc1nccnc1-c1nn2c(=O)cc(-c3ccc(OC(c4ccccc4)C(F)(F)F)cc3)[nH]c2c1C(=O)N1C[C@H](CF)[C@@H]1C (single isomer, unassigned) [Final product obtained using Enantiomer B from Step 1, Example 56]
[1]
  TEAD1 YAP50-100 HTRF combined: Max % Inhibition: 66.0%
  EC50: 430 nM
[2]
  TEAD2 YAP50-100 HTRF combined: Max % Inhibition: 83.5%
  EC50: 80 nM
[3]
  TEAD3 YAP50-100 HTRF combined: Max % Inhibition: 71.0%
  EC50: 830 nM
[4]
  TEAD4 YAP50-100 HTRF combined: Max % Inhibition: 59.5%
  EC50: 2850 nM
[5]
  TEAD1 TAZ HTRF combined: Max % Inhibition: 60.5%
  EC50: 360 nM
[6]
  TEAD2 TAZ HTRF combined: Max % Inhibition: 77.0%
  EC50: 70 nM
[7]
  TEAD3 TAZ HTRF combined: Max % Inhibition: 68.0%
  EC50: 940 nM
[8]
  TEAD4 TAZ HTRF combined: Max % Inhibition: 53.0%
  EC50: 2100 nM

## C[C@H]1[C@@H](CF)CN1C(=O)c1c(-c2cnccn2)nn2c(=O)cc(-c3ccc(C4CCCCC4)cc3)[nH]c12 (single isomer, unassigned) [Isomer A, Example 39]
[1]
  TEAD1 YAP50-100 HTRF combined: Max % Inhibition: 76.0%
  EC50: 60 nM
[2]
  TEAD2 YAP50-100 HTRF combined: Max % Inhibition: 76.0%
  EC50: 10 nM
[3]
  TEAD3 YAP50-100 HTRF combined: Max % Inhibition: 71.0%
  EC50: 120 nM
[4]
  TEAD4 YAP50-100 HTRF combined: Max % Inhibition: 51.5%
  EC50: 60 nM
[5]
  TEAD1 TAZ HTRF combined: Max % Inhibition: 69.5%
  EC50: 70 nM
[6]
  TEAD2 TAZ HTRF combined: Max % Inhibition: 77.0%
  EC50: 10 nM
[7]
  TEAD3 TAZ HTRF combined: Max % Inhibition: 69.5%
  EC50: 130 nM
[8]
  TEAD4 TAZ HTRF combined: Max % Inhibition: 58.0%
  EC50: 60 nM

## C[C@@H]1[C@H](CF)CN1C(=O)c1c(-c2ncccn2)nn2c(=O)cc(-c3ccc(C4CCCCC4)cc3)[nH]c12 (single isomer, unassigned) [Isomer A, Example 40]
[1]
  TEAD1 YAP50-100 HTRF combined: Max % Inhibition: 75.0%
  EC50: 60 nM
[2]
  TEAD2 YAP50-100 HTRF combined: Max % Inhibition: 76.0%
  EC50: 10 nM
[3]
  TEAD3 YAP50-100 HTRF combined: Max % Inhibition: 68.5%
  EC50: 140 nM
[4]
  TEAD4 YAP50-100 HTRF combined: Max % Inhibition: 53.5%
  EC50: 30 nM
[5]
  TEAD1 TAZ HTRF combined: Max % Inhibition: 64.5%
  EC50: 80 nM
[6]
  TEAD2 TAZ HTRF combined: Max % Inhibition: 70.5%
  EC50: 10 nM
[7]
  TEAD3 TAZ HTRF combined: Max % Inhibition: 63.0%
  EC50: 160 nM
[8]
  TEAD4 TAZ HTRF combined: Max % Inhibition: 53.0%
  EC50: 30 nM

## Cc1nccnc1-c1nn2c(=O)cc(-c3ccc(C4CCCCC4)cc3)[nH]c2c1C(=O)N1C[C@@H](CF)[C@H]1C (single isomer, unassigned) [Isomer A, Example 41]
[1]
  TEAD1 YAP50-100 HTRF combined: Max % Inhibition: 69.0%
  EC50: 150 nM
[2]
  TEAD2 YAP50-100 HTRF combined: Max % Inhibition: 26.0%
  EC50: 60 nM
[3]
  TEAD3 YAP50-100 HTRF combined: Max % Inhibition: 74.0%
  EC50: 530 nM
[4]
  TEAD4 YAP50-100 HTRF combined: Max % Inhibition: 51.0%
  EC50: 5500 nM
[5]
  TEAD1 TAZ HTRF combined: Max % Inhibition: 53.5%
  EC50: 180 nM
[6]
  TEAD2 TAZ HTRF combined: Max % Inhibition: 35.0%
  EC50: 50 nM
[7]
  TEAD3 TAZ HTRF combined: Max % Inhibition: 70.0%
  EC50: 690 nM
[8]
  TEAD4 TAZ HTRF combined: Max % Inhibition: 51.5%
  EC50: 4900 nM

Reference: patent US12692269B2, “Therapeutic compounds” (Genentech, Inc., priority 2019, dated 2026)
